Laboratory results taken from US4001230A, “3-(5-Nitroimidazol-2-yl)pyrazolo[3,4-d]pyrimidine compounds” (Eli Lilly and Company, priority 1975, dated 1977).
In brackets after ≈: the same amount, converted by molar mass. Like-named read-outs stand apart in the source and are kept apart here.

Experiments:
P. multocida = assay: In vivo activity in drinking water for treatment of Pasteurella multocida infection in mice (LD50, protective index); parameters: species or system white female mice; conditions: observed 7 days
Description: A comparison of the in vivo activity of a novel compound of this invention and nitrofurazolidone (Furacin) when administered in drinking water for the treatment of Pasteurella multocida infection in mice was conducted. The novel compound of this invention used in this study was 4,5-di-hydro-4-imino-1-methyl-3-(1-methyl-5-nitroimidazol-2-yl)-5-(4-pyridylmethyl)-1H-pyrazolo[3,4-d]pyrimidine diphosphate, identified by its operating example No. 8k. The test was conducted in the following manner.
Twenty white female mice, each weighing about 15-20 g., were divided into four groups of five mice each, and the groups were each placed on water medication containing:
a. Compound 8k, 0.5 g./gal.
b. Compound 8k, 2.0 g./gal.
c. Nitrofurazolidone, 0.5 g./gal.
d. Nitrofurazolidone, 2.0 g./gal.
The groups receiving each treatment were challenged with 0.1 ml. each of a 10^-^4, 10^-^5, 10^-^6, or 10^-^7 dilution of a 16 to 20-hour broth culture of P. multocida. Untreated groups of mice were challenged with log10 dilutions of the same broth culture using 0.1 ml. of 10^-^4 through 10^-^9 dilutions. […] By subtracting the LD50 of each of the treated groups from that of the control group of mice, there was obtained a figure called the protective index.
In the table, column 1 sets forth the treatment; column 2, the LD50; and column 3 the log10 protection obtained.

Salmonella typhimurium = assay: In vivo activity against Salmonella typhimurium in chicks, subcutaneous
Pasteurella multocida = assay: Efficacy against Pasteurella multocida infections in mice when administered by injection; format: in vivo, Female Swiss mice; conditions: for responders at 2.5 mg/kg / responders at 5 mg/kg / responders at 1.25 mg/kg: Pasteurella multocida, ip, read-out: Survival ratio (mice surviving / mice tested) (converted); for responders at 2.5 mg/kg: 2.5 mg./kg. intraperitoneal; for responders at 1.25 mg/kg: 1.25 mg./kg. intraperitoneal
Description: The efficacy of the novel compounds against Pasteurella multocida infections in mice when administered by injection was studied.
Female Swiss mice weighing from 15 to about 20 g. were used. The test compound, 5.0 mg., was weighed out and dissolved in 0.5 ml. of dimethyl sulfoxide, and this solution was added to 9.5 ml. of sodium carboxymethylcellulose suspension. Groups of five mice each were injected intraperitoneally with 0.1 ml. each of the above-prepared test composition. This preparation gave a test rate of 2.5 mg. per kilo of body weight of mouse. The compounds were tested at 1.25, 2.5, or 5.0 per kilogram of body weight of mouse, and the test preparations for the rates of 1.25 and 5.0 mg./kg. were prepared in a similar manner. Immediately after receiving the test compound, the mice were challenged using log10 dilutions of 10^-^4, 10^-^5 and 10^-^6,of a 16 to 20-hour tryptose broth culture of Pasteurella multocida at 0.1 ml. per mouse subcutaneously. Similar groups of nontreated control mice were also challenged, the challenge being administered subcutaneously. The groups of mice were observed daily for mortality and the total mortality in treated groups compared with that which occurred in the nonmedicated control groups. Each test compound is identified by the number of the example describing its preparation.
In the chart, column 1 lists the test compound; column 2, the dosage of test compound in mg./kg. of mouse body weight; column 3, the dilution of the challenge organism; and column 4, the ratio of the number of mice surviving the test at each dosage and challenge dilution to the number of mice tested at each dosage and challenge dilution, called the survival ratio.

Trichomonas vaginalis [1] = assay: In vitro activity against Trichomonas vaginalis; format: cell-based
Trichomonas vaginalis [2] = assay: In vivo activity against Trichomonas vaginalis
Pseudomonas sp. = assay: In vitro activity against fish bacterial pathogen, standard tube dilution test (MIC); format: cell-based; conditions: tryptose broth, overnight, about 37° C., read-out: minimum inhibitory concentration (MIC)
Description: (§1) The in vitro activity of certain of the novel compounds of this invention against two fish bacterial pathogens was determined using tryptose broth and the standard tube dilution test system. Doubling dilutions ranging from 100.0 to 0.78 mcg./ml. of each of the test compounds were prepared in 5 ml. amounts of tryptose broth. Each tube in the series was then inoculated with one drop from a 24-hour broth culture of either Pseudomonas sp. or a strain of Aeromonas liquefaciens. The tubes were incubated overnight at about 37° C., and the minimum inhibitory concentration (MIC) determined and recorded.
(§2) Column 1 lists the test compounds identified by their operating example number; column 2 lists the MIC for Pseudomonas sp.; and column 3 lists the MIC for Aeromonas liquefaciens.

Aeromonas liquefaciens = assay: as above; format: cell-based; conditions: Aeromonas hydrophila; Aeromonas liquefaciens; tryptose broth, overnight, about 37° C.; read-out: minimum inhibitory concentration (MIC)
Description: as §1, §2

Treponema hyodysenteriae = assay: In vitro activity against Treponema hyodysenteriae on blood agar plates (MIC); format: cell-based
Description: A number of representative compounds, namely, 5b, 8, and 15b, were tested for their in vitro activity against Treponema hyodysenteriae. The treponema were propagated on blood agar plates. Each plate which was prepared contained 20 ml. of trypticase soy agar (Baltimore Biological Laboratory [BBL]) with 5.0 g./l. of yeast extract (Difco) and 5 percent sterile defibrinated horse blood. The plates were sterile plastic 15 × 100 mm. petri plates. Incubation was carried out at 37° C. for 4 days under anaerobic conditions using the BBL Gas Pak system.
The concentrations of test compounds in this initial test were prepared in dilutions ranging from 2000 mcg./ml. to 7.8 mcg./ml. The test procedure was carried out in the following manner. Five ml. of a twenty-fold concentration in tryptose broth (Difco) of each filter-sterilized test compound dilution was mixed in a series of flasks containing 90 ml. of melted trypticase soy agar with yeast extract. Five ml. of horse blood was then added per flask. The contents of these flasks were then used to prepare a series of blood agar plates in doubling decreasing dilutions ranging from 100 mcg./ml. to 0.39 mcg./ml.
The treponema for inoculation of these plates were obtained by adding 3.0 ml. of sterile tryptose broth to the surface of a plate on which the treponema had been propagated. A sterile cotton-tipped swab was used to loosen the treponema from the agar. […] The inoculum was spread so that it covered the surface of each plate, a bent sterile plastic pipette being used for this purpose for each plate. The plates were incubated at about 36° C. for about 4 days and then examined for growth of the treponema. The minimum inhibitory concentration (MIC) of each test compound was the concentration that prevented growth of treponema.

[3] = challenge dilution 10^-^4 subcutaneous
[4] = challenge dilution 10^-^5 subcutaneous
[5] = challenge dilution 10^-^6 subcutaneous
[6] = 5.0 mg./kg. intraperitoneal, challenge dilution 10^-^4 subcutaneous
[7] = 5.0 mg./kg. intraperitoneal, challenge dilution 10^-^5 subcutaneous
[8] = 5.0 mg./kg. intraperitoneal, challenge dilution 10^-^6 subcutaneous

Molecule | Protective Index (log10 protection) (P. multocida; 0.5 g./gal. in drinking water) | Protective Index (log10 protection) (P. multocida; 2.0 g./gal. in drinking water) | in vivo activity against Salmonella typhimurium in chicks (Salmonella typhimurium) | responders at 2.5 mg/kg (Pasteurella multocida; [3]) [%] | responders at 2.5 mg/kg (Pasteurella multocida; [4]) [%] | responders at 2.5 mg/kg (Pasteurella multocida; [5]) [%] | responders at 5 mg/kg (Pasteurella multocida; [6]) [%] | responders at 5 mg/kg (Pasteurella multocida; [7]) [%] | responders at 5 mg/kg (Pasteurella multocida; [8]) [%] | in vitro activity against Trichomonas vaginalis (Trichomonas vaginalis [1]) | in vivo activity against Trichomonas vaginalis (Trichomonas vaginalis [2]) | Survival ratio (mice surviving / mice tested) (Pasteurella multocida; [6]) | responders at 1.25 mg/kg (Pasteurella multocida; [3]) [%] | responders at 1.25 mg/kg (Pasteurella multocida; [4]) [%] | responders at 1.25 mg/kg (Pasteurella multocida; [5]) [%] | MIC (Pseudomonas sp.) [µg/mL] | MIC (Aeromonas liquefaciens) [µg/mL] | MIC (Treponema hyodysenteriae; Brachyspira hyodysenteriae, 96 h, blood agar plates, about 36° C., about 4 days, read-out: minimum inhibitory concentration (MIC)) [µg/mL] | inhibition of growth of the treponema (Treponema hyodysenteriae; doubling dilutions 100 mcg./ml. to 0.39 mcg./ml.)
5-[2-(Diethylamino)ethyl]-4,5-dihydro-4-imino-1-methyl-3-(1-methyl-5-nitroimidazol-2-yl)-1H-pyrazolo[3,4-d]-pyrimidine disulfate [Example 8i] | > 2.5 | > 2.5 |  |  |  |  |  |  |  |  |  |  |  |  |  |  |  |  | 
Cc1nc2c(c(-c3ncc([N+](=O)[O-])n3C)nn2C)c(=O)[nH]1 [Example 13, 1,5-Dihydro-1,6-dimethyl-3-(1-methyl-5-nitroimidazol-2-yl)-4H-pyrazolo[3,4-d]pyrimidin-4-one] |  |  | active in vivo against Salmonella typhimurium in chicks | 20 | 20 | 60 | 10 | 50 | 50 |  |  |  |  |  |  |  |  |  | 
Cn1nc(-c2ncc([N+](=O)[O-])n2C)c2c1NC(CCl)(OC(=O)CCl)NC2=O (centres unmarked) [Example 3, 6-(Chloromethyl)-6,7-dihydro-6-hydroxy-1-methyl-3-(1-methyl-5-nitroimidazol-2-yl)-1H-pyrazolo[3,4-d]pyrimidin-4-(5H)-one, chloroacetate ester] |  |  |  | 30 | 10 | 20 | 5 | 20 | 25 | active both in vitro and in vivo against Trichomonas vaginalis | active both in vitro and in vivo against Trichomonas vaginalis |  |  |  |  |  |  |  | 
CN(C)CCCn1cnc2c(c(-c3ncc([N+](=O)[O-])n3C)nn2C)c1=N [Example 10, 5-[3-(Dimethylamino)propyl]-4,5-dihydro-4-imino-1-methyl-3-(1-methyl-5-nitroimidazol-2-yl)-1H-pyrazolo[3,4-d]pyrimidine] |  |  |  |  |  |  | 100 | 80 | 100 | active both in vitro and in vivo against Trichomonas vaginalis | active both in vitro and in vivo against Trichomonas vaginalis |  |  |  |  |  |  |  | 
CN(C)CCn1cnc2c(c(-c3ncc([N+](=O)[O-])n3C)nn2C)c1=N [Example 8, 5-[2-(Dimethylamino)ethyl]4,5-dihydro-4-imino-1-methyl-3-(1-methyl-5-nitroimidazol-2-yl)-1H-pyrazolo[3,4-d]pyrimidine] |  |  | active in vivo against Salmonella typhimurium in chicks | 40 | 60 | 100 |  | 100 | 100 | active both in vitro and in vivo against Trichomonas vaginalis | active both in vitro and in vivo against Trichomonas vaginalis | 10/10 | 20 | 40 | 60 | 1.56 (≈ 4.52 µM) | 12.5 (≈ 36.2 µM) | ≤ 1.56 | inhibited growth of the treponema at each of the levels tested
CCc1nc2c(c(-c3ncc([N+](=O)[O-])n3C)nn2C)c(=O)[nH]1 [Example 2, 6-Ethyl-1,5-dihydro-1-methyl-3-(1-methyl-5-nitroimidazol-2-yl)-4H-pyrazolo[3,4-d]pyrimidin-4-one] |  |  | active in vivo against Salmonella typhimurium in chicks |  |  |  | 20 | 33.3 | 33.3 |  |  |  |  |  |  | 50 (≈ 165 µM) | 50 (≈ 165 µM) |  | 
